Source: PubChem BioAssay (NCI)
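Values below derive from 48-hour exposures of cells grown in 96-well plates, with endpoints linearly interpolated between the two concentrations bracketing the appropriate inhibition level. The concentration for 50% growth inhibition is given as GI50. At the TGI there is no net growth.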 Where a SMILES comes first, the peptide text is derived from it. The star is where a group is joined. Trt = c1ccc(C(c2ccccc2)(c2ccccc2)*)cc1; Cbz = O=C(OCc1ccccc1)*

Columns and labels:
Experiment in all cases: inhibition of tumour cell growth, NCI panel, 48 h
NCI-H226 lung = test system: NCI-H226 lung
HT29 colon = test system: HT29 colon
SK-OV-3 ovarian = test system: SK-OV-3 ovarian
LOX IMVI melanoma = test system: LOX IMVI melanoma
RPMI-8226 leukemia = test system: RPMI-8226 leukemia
HS 578T breast = test system: HS 578T breast
KM12 colon = test system: KM12 colon
OVCAR-3 ovarian = test system: OVCAR-3 ovarian
HOP-62 NSCLC = test system: HOP-62 NSCLC
HCT-116 colon = test system: HCT-116 colon

Compound | GI50 (NCI-H226 lung) [µM] | TGI (NCI-H226 lung) [µM] | GI50 (HT29 colon) [nM] | TGI (HT29 colon) [µM] | GI50 (SK-OV-3 ovarian) [nM] | TGI (SK-OV-3 ovarian) [µM] | GI50 (LOX IMVI melanoma) [nM] | TGI (LOX IMVI melanoma) [µM] | GI50 (RPMI-8226 leukemia) [nM] | TGI (RPMI-8226 leukemia) [µM] | GI50 (HS 578T breast) [nM] | TGI (HS 578T breast) [µM] | GI50 (KM12 colon) [nM] | TGI (KM12 colon) [µM] | GI50 (OVCAR-3 ovarian) [nM] | TGI (OVCAR-3 ovarian) [µM] | GI50 (HOP-62 NSCLC) [nM] | TGI (HOP-62 NSCLC) [µM] | GI50 (HCT-116 colon) [nM] | TGI (HCT-116 colon) [µM]
Cc1cc(Nc2nc(-c3ccncc3)nc3ccccc23)n[nH]1 | 13.8 | > 100 | 2880 | > 100 | 3450 | > 100 | 2690 | > 100 | > 100000 | > 100 | 1360 | 7.47 | 335 | > 100 | 9260 | > 100 | 11000 | > 100 | 1990 | > 100
O=C(C=C=Nc1ccccc1)C(=O)N=C=Cc1ccccc1 | 16.4 | 59.8 | 1890 | 4.74 | 20300 | 68 | 1930 | 4.48 | 534 | 2.29 | 2260 | 7.31 | 6380 | 19.1 | 1480 | 2.97 | 21400 | 52.6 | 1550 | 3.84
COc1cc(Cn2c(-c3ccccc3)cc3c2-c2oncc2CC3)cc(OC)c1 | 0.93 | > 100 | 315 | 25.9 | 400 | > 100 | 757 | > 100 | 459 | – | 264 | 50.1 | 313 | 9.76 | 204 | 0.477 | 521 | > 100 | 354 | > 46.8
COc1cc2c(cc1OCCCOc1ccc(-c3nc4ccc(N5CCN(C)CC5)cc4[nH]3)cc1)N=C[C@@H]1CCCN1C2=O | < 0.01 | < 0.01 | < 10 | > 100 | < 10 | 22.8 | < 10 | 1.58 | < 10 | < 0.01 | < 10 | < 0.01 | < 10 | – | < 10 | < 0.01 | < 10 | < 0.01 | < 10 | > 37
Cc1ccc(-c2n[nH]c(=O)c3noc(-c4ccc(C)cc4)c23)cc1 | 6.88 | > 100 | 400 | 15.8 | 1510 | 11.5 | 677 | > 100 | 616 | > 100 | 1310 | 15.9 | 713 | > 100 | 1000 | 3.41 | 835 | 13.4 | 557 | 75.5
COC(=O)/C(=N\Nc1nnc(C)n1N)C(C#N)c1ccccc1 (configuration not stated) | – | > 100 | – | > 100 | – | > 100 | – | > 100 | – | > 100 | – | > 100 | – | > 100 | – | > 100 | – | > 100 | – | > 100
CNC(c1ccncc1)C(NC)c1ccncc1 (configuration not stated) | – | > 100 | – | > 100 | – | > 100 | – | > 100 | – | > 100 | – | > 100 | – | > 100 | – | > 100 | – | > 100 | – | > 100
Nc1c(C(=O)Nc2cccc3ccccc23)sc2nc3c(cc12)C(=O)CCC3 | 1.16 | > 63.6 | 265 | – | 173 | 7.65 | 554 | > 100 | 366 | > 38.2 | 226 | > 100 | 217 | > 100 | 229 | 0.696 | 315 | > 38.2 | 327 | > 100
COc1ccc(-c2nc(C(=O)c3ccccc3)n(CC(=O)c3ccc(Cl)cc3)c2-c2ccc(OC)cc2)cc1 | > 100 | > 100 | > 100000 | > 100 | > 100000 | > 100 | > 100000 | > 100 | > 100000 | > 100 | > 100000 | > 100 | > 100000 | > 100 | > 100000 | > 100 | > 100000 | > 100 | > 100000 | > 100
O=S(=O)(O)SCCNCCCCCC1CCCCC1 | – | 30.6 | – | 19.1 | – | 31.2 | – | 4.78 | – | 42.1 | – | 36.2 | – | 7.76 | – | 11.2 | – | 17.9 | – | 10.2
COC(=O)C(CSC(c1ccccc1)(c1ccccc1)c1ccccc1)NC(=O)C(CC(N)=O)NC(=O)OCc1ccccc1 (stereo not drawn) (Cbz-Asn-Cys(Trt)-OMe; configuration not given here) | 5.43 | 22 | 5030 | 17.2 | 2420 | 10.2 | 1830 | 3.51 | 2290 | 5.93 | 4550 | 26.5 | 4620 | 17 | 1780 | 4.67 | 3770 | 14.7 | 2790 | 10.7
COc1cccc2c1cc1c3c(cc4c(c32)OCO4)C(=O)N1 | 5.8 | 54 | 5020 | 73 | 13600 | 48.9 | 4270 | 23.3 | 5290 | > 100 | 2330 | 6.82 | 4090 | 23.7 | 2500 | 5.58 | 6890 | 37.6 | 3630 | 13.2
Cc1c(Cl)cccc1NC(=O)c1sc2nc3c(cc2c1N)CCCC3 | > 100 | > 100 | 369 | > 100 | 444 | > 100 | 576 | > 100 | 1610 | > 100 | 1050 | > 100 | 482 | > 100 | 378 | > 100 | 451 | > 100 | 425 | > 100
CCCOC(=O)C1C2CCC(O2)C1C(=O)O (configuration not stated) | – | > 100 | – | > 100 | – | > 100 | – | > 100 | – | > 100 | – | > 100 | – | > 100 | – | > 100 | – | > 100 | – | > 100
